Values after ≈ are worked out from the molar mass of the structure shown. Read-outs that look alike come from different tables or passages of the source.
Legend:
K. pneumonia ATCC 13883 = assay: MIC by micro broth dilution; type: cell-based; conditions: for activity in words: Klebsiella pneumonia (susceptible); for MIC: Klebsiella pneumoniae, ATCC13883, K. pneumonia ATCC 13883, read-out: Minimum inhibitory concentration (MIC)
Procedure: (§1) MIC of DART molecules were determined by micro broth dilution as per CLSI guidelines. Bacterial strains were cultured in Brain Heart Infusion Agar (BHIA) at 37° C. for 24 h. For MIC determination, BHI broth (100 μl) was added to each of the wells of a 96 well plate. 100 μl of broth containing drug was added to the first well (1A to 1H) and thereafter serial (double) dilutions were carried out for up to 10 wells (column 1 to column 10 of the 96 well plate). Bacterial inoculum was prepared by adjusting the bacterial culture turbidity to 0.5 McFarland standard (approximately 1.5×10^8 cells/ml) and further diluted (100 times with sterile BHI broth). Diluted bacterial suspension (100 μl) was added to each well except sterility control wells (column 12 of 96 well plate). The plates were incubated at 37° C. for 24 h. The MIC of the test compound was measured after addition of Alamar blue dye.

E. faecium CCARM 5207 = assay: MIC by micro broth dilution; type: cell-based; conditions: Enterococcus faecium, CCARM5207, read-out: Minimum inhibitory concentration (MIC)
Procedure: as §1

S. epidermidis S12-1 = assay: MIC by micro broth dilution; type: cell-based; conditions: Staphylococcus epidermidis, S121, read-out: Minimum inhibitory concentration (MIC)
Procedure: as §1

E. aerogenes M2-1 = assay: MIC by micro broth dilution; type: cell-based; conditions: Klebsiella aerogenes, M21, read-out: Minimum inhibitory concentration (MIC)
Procedure: as §1

E. faecium NCIM 5421 = assay: MIC by micro broth dilution; type: cell-based; conditions: Enterococcus faecium, NCIM5421, read-out: Minimum inhibitory concentration (MIC)
Procedure: as §1

E. fecalis CCARM 5168 = assay: MIC by micro broth dilution; type: cell-based; conditions: read-out: Minimum inhibitory concentration (MIC)
Procedure: as §1

E. aerogenes NCIM 5139 = assay: MIC by micro broth dilution; type: cell-based; conditions: Klebsiella aerogenes, NCIM5139, read-out: Minimum inhibitory concentration (MIC)
Procedure: as §1

A. baumannii ATCC 1906 = assay: MIC by micro broth dilution; type: cell-based; conditions: Acinetobacter baumannii, ATCC1906, read-out: Minimum inhibitory concentration (MIC)
Procedure: as §1

[1] = tested on: S. epidermidis ATCC 35984; assay: MIC by micro broth dilution; type: cell-based; conditions: Staphylococcus epidermidis, ATCC35984, read-out: Minimum inhibitory concentration (MIC)
Procedure: as §1

P. aeruginosa CCARM 2161 = assay: MIC by micro broth dilution; type: cell-based; conditions: Pseudomonas aeruginosa, CCARM2161, read-out: Minimum inhibitory concentration (MIC)
Procedure: as §1

S. aureus MTCC 6908 = assay: MIC by micro broth dilution; type: cell-based; conditions: Staphylococcus aureus, MTCC6908, read-out: Minimum inhibitory concentration (MIC)
Procedure: as §1

E. coli BAA 196 = assay: MIC by micro broth dilution; type: cell-based; conditions: Escherichia coli, BAA196, read-out: Minimum inhibitory concentration (MIC)
Procedure: as §1

A. baumannii CCARM 12020 = assay: MIC by micro broth dilution; type: cell-based; conditions: Acinetobacter baumannii, CCARM12020, read-out: Minimum inhibitory concentration (MIC)
Procedure: as §1

S. aureus CCARM 3505 = assay: MIC by micro broth dilution; type: cell-based; conditions: Staphylococcus aureus, CCARM3505, read-out: Minimum inhibitory concentration (MIC)
Procedure: as §1

A. baumannii CCARM 12001 = assay: MIC by micro broth dilution; type: cell-based; conditions: Acinetobacter baumannii, CCARM12001, read-out: Minimum inhibitory concentration (MIC)
Procedure: as §1

P. aeruginosa ATCC 27853 = assay: MIC by micro broth dilution; type: cell-based; conditions: Pseudomonas aeruginosa, ATCC27853, read-out: Minimum inhibitory concentration (MIC)
Procedure: as §1

P. aeruginosa CCARM 2204 = assay: MIC by micro broth dilution; type: cell-based; conditions: Pseudomonas aeruginosa, CCARM2204, read-out: Minimum inhibitory concentration (MIC)
Procedure: as §1

E. coli MTCC 1687 = assay: MIC by micro broth dilution; type: cell-based; conditions: Escherichia coli, MTCC1687, read-out: Minimum inhibitory concentration (MIC)
Procedure: as §1

S. aureus ATCC 43300 = assay: MIC by micro broth dilution; type: cell-based; conditions: for MIC: Staphylococcus aureus, ATCC43300, S. aureus ATCC 43300, read-out: Minimum inhibitory concentration (MIC)
Procedure: as §1

[2] = tested on: S. epidermidis ATCC 35984 biofilm; assay: Biofilm disruption assay (MTT) with compounds and compound loaded beads; type: cell-based; conditions: for EC50: Staphylococcus epidermidis
Procedure: S. epidermidis ATCC 35984 was grown in Brain Heart Infusion Agar (BHIA) at 37° C. for 24 h. The loop full of bacterial culture was suspended in sterile water and matched the turbidity against 0.5 McFarland Standard (approximately 1.5×10^8), 100 μl of culture suspension was added into each well of the 96 well plate and plates were incubated at 37° C. for 48 h for biofilm formation. The biofilm formed in each well was washed twice with sterile water to remove the planktonic cells. Then biofilm was treated with 100 yl of BHI broth suspended with various concentrations of DART molecules, followed by incubation of the plates at 37° C. for 24 h. Subsequently the biofilm in the wells were stained with MTT reagent and the plates were incubated at 37° C. for 2 h. The precipitate formed in the wells was dissolved in 100 μl of dimethyl sulfoxide (DMSO) and the absorbance was measured at 600 nm in multi well plate reader to determine the minimum biofilm inhibitory concentration (MBIC). The MBIC was calculated by subtracting the absorbance value of each drug treated sample from that of 48 h growth control.

S. epidermidis S5-2 = assay: Sequential ZIB (zone of inhibition) assay for PMMA beads; type: cell-based, Staphylococcus epidermidis; conditions: SmartSet HV impregnated beads
Procedure: S. epidermidis S5-2 cells were grown in Brain Heart Infusion Agar (BHIA) at 37° C. for 24 h. 100 μl of 0.5 McFarland equal bacterial suspension was spread on BHA plates. Drug loaded beads were placed above these plates. Plates were incubated at 37° C. for 24 h. Next day, zone of inhibition (ZOI) the beads were measured following which the beads were placed on fresh BHA plates with bacterial suspension spread and this experiment was continued up to seven days. The drug release pattern was determined by compiling and analyzing the ZOI data of beads on each ZOI cycle up to seven days.

Structure (SMILES)	activity in words (K. pneumonia ATCC 13883)	MIC (K. pneumonia ATCC 13883) [mg/L]	MIC (E. faecium CCARM 5207) [mg/L]	MIC (S. epidermidis S12-1) [mg/L]	MIC (E. aerogenes M2-1) [mg/L]	MIC (E. faecium NCIM 5421) [mg/L]	MIC (E. fecalis CCARM 5168) [mg/L]	MIC (E. aerogenes NCIM 5139) [mg/L]	MIC (A. baumannii ATCC 1906) [mg/L]	MIC [1] [mg/L]	MIC (P. aeruginosa CCARM 2161) [mg/L]	MIC (S. aureus MTCC 6908) [mg/L]	MIC (E. coli BAA 196) [mg/L]	MIC (A. baumannii CCARM 12020) [mg/L]	MIC (S. aureus CCARM 3505) [mg/L]	MIC (A. baumannii CCARM 12001) [mg/L]	MIC (P. aeruginosa ATCC 27853) [mg/L]	MIC (P. aeruginosa CCARM 2204) [mg/L]	MIC (E. coli MTCC 1687) [mg/L]	MIC (S. aureus ATCC 43300) [mg/L]	further results
CC1Sc2c(C(=O)O)c(=O)c3cc(F)c(N4CCN(C(=O)c5ccc([N+](=O)[O-])o5)CC4)cc3n21 (stereo not drawn) [Compound 11, 6-Fluoro-1-methyl-7-(4-(5-nitrofuran-2-carbonyl)piperazin-1-yl)-4-oxo-1H,4H-[1,3]thiazeto[3,2-a]-quinoline-3-carboxylic acid]	active	0.5 (≈ 1.02 µM)	8 (≈ 16.4 µM)	0.13 (≈ 0.266 µM)	0.25 (≈ 0.512 µM)	0.625 (≈ 1.28 µM)	4 (≈ 8.19 µM)	0.125 (≈ 0.256 µM)	1 (≈ 2.05 µM)	< 0.03	> 16	0.125 (≈ 0.256 µM)	1 (≈ 2.05 µM)	> 16	1 (≈ 2.05 µM)	> 16	1 (≈ 2.05 µM)	> 16	0.25 (≈ 0.512 µM)	0.03 (≈ 0.0614 µM)	–
CC1Sc2c(C(=O)O)c(=O)c3cc(F)c(N4CCN(CC(=O)Nc5ccc6nc(N)[nH]c6c5)CC4)cc3n21 (stereo not drawn) [Compound 19, 7-(4-(2-((2-Amino-1H-benzo[d]imidazol-6-yl)-amino)-2-oxoethyl)piperazin-1-yl)-6-fluoro-1-methyl-4-oxo-1H,4H-[1,3]thiazeto[3,2-a]quinoline-3-carboxylic acid]	–	–	> 16	> 16	–	> 16	> 16	–	–	16 (≈ 29.8 µM)	–	> 64	–	–	> 16	–	–	–	–	32 (≈ 59.5 µM)	–
CC1Sc2c(C(=O)O)c(=O)c3cc(F)c(N4CCN(Cc5nc6cc(Cl)c(Cl)cc6[nH]5)CC4)cc3n21 (stereo not drawn) [Compound 21, 7-(4-((5,6-Dichloro-1H-benzo[d]imidazol-2-yl)methyl)piperazin-1-yl)-6-fluoro-1-methyl-4-oxo-1H,4H-[1,3]thiazeto[3,2-a]quinoline-3-carboxylic acid]	active	0.5 (≈ 0.912 µM)	–	> 16	16 (≈ 29.2 µM)	0.25 (≈ 0.456 µM)	–	16 (≈ 29.2 µM)	16 (≈ 29.2 µM)	< 0.03	> 16	0.25 (≈ 0.456 µM)	> 16	> 16	> 16	> 16	16 (≈ 29.2 µM)	> 16	8 (≈ 14.6 µM)	0.13 (≈ 0.237 µM)	–
CC1Sc2c(C(=O)O)c(=O)c3cc(F)c(N4CCN(C(=O)c5cccc(Br)n5)CC4)cc3n21 (stereo not drawn) [Compound 32, 7-(4-(6-Bromopicolinoyl)piperazin-1-yl)-6-fluoro-1-methyl-4-oxo-1H,4H-[1,3]thiazeto[3,2-a]-quinoline-3-carboxylic acid]	active	0.5 (≈ 0.937 µM)	–	4 (≈ 7.5 µM)	16 (≈ 30 µM)	–	–	16 (≈ 30 µM)	2 (≈ 3.75 µM)	0.13 (≈ 0.244 µM)	> 16	0.5 (≈ 0.937 µM)	8 (≈ 15 µM)	> 16	8 (≈ 15 µM)	> 16	16 (≈ 30 µM)	> 16	4 (≈ 7.5 µM)	0.06 (≈ 0.112 µM)	–
CC(=O)NC[C@H]1CN(c2ccc(N3CCN(CC(=O)Nc4ncc([N+](=O)[O-])s4)CC3)c(F)c2)C(=O)O1 [Compound 55, (S)-2-(4-(4-(5-(Acetamidomethyl)-2-oxooxazolidin-3-yl)-2-fluorophenyl)piperazin-1-yl)-N-(5-nitrothiazol-2-yl)acetamide]	–	> 16	–	0.5 (≈ 0.959 µM)	–	0.06 (≈ 0.115 µM)	–	–	> 16	0.06 (≈ 0.115 µM)	> 16	0.25 (≈ 0.479 µM)	> 16	> 16	0.25 (≈ 0.479 µM)	> 16	> 16	> 16	> 16	0.5 (≈ 0.959 µM)	fold better activity in comparison to commercial linezolid (S. aureus ATCC 43300; against MRSA): 8 fold; times more active than linezolid analogue (S. aureus ATCC 43300; against MRSA): 8 times; EC50 ([2]; ATCC35984, 48 h biofilm, 24 h treatment, read-out: Concentration of compounds (mg/ml) for 50% biofilm disruption): > 2 mg/mL
CN[C@H](CC(C)C)C(=O)N[C@H]1C(=O)N[C@@H](CC(N)=O)C(=O)N[C@H]2C(=O)N[C@H]3C(=O)N[C@H](C(=O)N[C@H](C(=O)O)c4cc(O)cc(O)c4-c4cc3ccc4O)[C@H](O)c3ccc(c(Cl)c3)Oc3cc2cc(c3O[C@@H]2O[C@H](CO)[C@@H](O)[C@H](O)[C@H]2O[C@H]2C[C@](C)(N)[C@H](O)[C@H](C)O2)Oc2ccc(cc2Cl)[C@H]1O [Vancomycin, reference compound]	–	–	–	–	–	–	–	–	–	–	–	–	–	–	–	–	–	–	–	–	Sequential ZOI (S. epidermidis S5-2; Day-1): 1.4 cm; Sequential ZOI (S. epidermidis S5-2; Day-2): 1.2 cm; Sequential ZOI (S. epidermidis S5-2; Day-3): 0.7 cm; Sequential ZOI (S. epidermidis S5-2; Day-4): 0.7 cm; Sequential ZOI (S. epidermidis S5-2; Day-5): 0 cm; Sequential ZOI (S. epidermidis S5-2; Day-6): 0 cm; Sequential ZOI (S. epidermidis S5-2; Day-7): 0 cm; Biofilm disruption ([2]; PMMA beads of 3 mm diameter): 40; EC50 ([2]; ATCC35984, read-out: Concentration of compounds (mg/ml) for 50% biofilm disruption): 0.02 to 0.03 mg/mL (≈ 13.8 to 20.7 µM)
